Measurements: patent publication US8865703B2, “Pyridyltriazoles” (Boehringer Ingelheim International GmbH, priority 2010, dated 2014)

Target: T1, B-Raf (V600E)-kinase (Homo sapiens, UniProt P15056, V600E)
T1 construct: purchased Upstate
Assay: Kinase test B-Raf (V600E)
Type: biochemical
Conditions: 1 h incubation with kinase before start, 250 μM ATP, biotinylated MEK1 substrate
Procedure: Kinase Test B-Raf (V600E)
In a dilution series 10 μL/well of test substance solution are placed in a multiwell plate. The dilution series is selected so that generally a range of concentrations of 2 μM to 0.119 nM or 0.017 nM is covered. If necessary the initial concentration of 2 μM is changed to 50 μM, 10 μM, 0.4 μM or 0.2857 μM and further dilution is carried out accordingly. The final concentration of DMSO is 5%. 10 μL/well of the B-Raf (V600E)-kinase solution are pipetted in (containing 0.5 ng B-Raf (V600E)-kinase, e.g. from Upstate) in 20 mM tris-HCl pH 7.5, 0.1 mM EDTA, 0.1 mM EGTA, 0.286 mM sodium orthovanadate, 10% glycerol, 1 mg/mL bovine serum albumin, 1 mM dithiothreitol) and the mixture is incubated for 1 h at RT with shaking. The kinase reaction is started by the addition of 20 μL/well ATP solution [final concentration: 250 μM ATP, 30 mM tris-HCl pH 7.5, 0.02% Brij, 0.2 mM sodium orthovanadate, 10 mM magnesium acetate, 0.1 mM EGTA, phosphatase cocktail (Sigma, # P2850, dilution recommended by the manufacturer)] and 10 μL/well MEK1 solution [containing 50 ng biotinylated MEK1 (prepared from purified MEK1 according to standard procedure, e.g. with EZ-Link Sulpho-NHS-LC-Biotin reagent, Pierce, #21335)] and carried out for 60 min at RT with constant shaking. The reaction is stopped by the addition of 12 μL/well of a 100 mM EDTA solution and incubation is continued for a further 5 min. 55 μL/well of the reaction solution are transferred into a streptavidin-coated plate (e.g. Streptawell HighBond, Roche, #11989685001) and gently shaken for 1 h at RT in order to bind biotinylated MEK1 to the plate. After elimination of the liquid the plate is washed five times with 200 μL/well of 1×PBS and 100 μL/well solution of primary antibody plus europium-labelled secondary antibody [Anti Phospho-MEK (Ser217/221), Cell Signaling, #9121 and Eu-N1 labelled goat-anti-rabbit antibody, Perkin Elmer, # AD0105] is added, the primary antibody is diluted 1:2000 and the secondary antibody is diluted to 0.4-0.5 μg/mL in Delfia Assay Buffer (Perkin Elmer, #1244-111). After 1 h shaking at RT the solution is poured away and washed five times with 200 μL/well Delfia Wash Buffer (Perkin Elmer, #4010-0010/#1244-114). After the addition of 200 μL/well Enhancement Solution (Perkin Elmer, #4001-0010/#1244-105) the mixture is shaken for 10 min at RT and then measured in a Wallac Victor using the program “Delfia Time Resolved Fluorescence (Europium)”. IC50 values are obtained from these dosage-activity curves using a software program (GraphPadPrizm).

T1 sequence (P15056 whole entry V600E): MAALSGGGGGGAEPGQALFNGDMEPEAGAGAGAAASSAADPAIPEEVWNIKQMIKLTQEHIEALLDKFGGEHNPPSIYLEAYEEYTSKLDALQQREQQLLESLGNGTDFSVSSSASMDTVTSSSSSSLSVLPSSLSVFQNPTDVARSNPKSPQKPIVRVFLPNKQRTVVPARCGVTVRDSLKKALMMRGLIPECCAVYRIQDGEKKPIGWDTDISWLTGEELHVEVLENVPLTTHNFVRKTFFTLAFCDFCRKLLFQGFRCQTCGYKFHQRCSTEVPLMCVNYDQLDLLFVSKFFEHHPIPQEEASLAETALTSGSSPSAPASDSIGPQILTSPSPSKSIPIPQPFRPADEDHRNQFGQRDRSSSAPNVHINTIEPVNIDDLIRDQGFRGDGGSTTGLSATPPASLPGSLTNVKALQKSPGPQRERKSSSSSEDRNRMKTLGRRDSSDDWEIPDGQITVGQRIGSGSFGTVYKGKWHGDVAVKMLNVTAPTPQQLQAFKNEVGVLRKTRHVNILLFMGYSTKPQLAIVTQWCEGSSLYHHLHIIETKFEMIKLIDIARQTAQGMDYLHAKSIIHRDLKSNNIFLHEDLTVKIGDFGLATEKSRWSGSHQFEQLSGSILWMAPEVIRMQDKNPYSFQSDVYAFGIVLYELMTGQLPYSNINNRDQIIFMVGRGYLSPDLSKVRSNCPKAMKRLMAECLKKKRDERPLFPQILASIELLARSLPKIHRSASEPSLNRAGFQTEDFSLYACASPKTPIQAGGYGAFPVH

CCN1CCN(c2cncc(-c3cn(-c4cc(NC(=O)c5ccc(C(C)(C)C)o5)cnc4C)nn3)c2)CC1 [I-3]
IC50: 3 nM

Cc1ncc(NC(=O)c2cc(C)n(C(C)(C)C)n2)cc1-n1cc(-c2cncc(N3CCN(C4CC4)CC3)c2)nn1 [I-15]
IC50: 20 nM

Cc1ncc(NC(=O)c2cc(C)n(C(C)C)n2)cc1-n1cc(-c2cncc(N3CCN(C(C)C)CC3)c2)nn1 [I-47]
IC50: 6 nM

CCN1CCN(c2cncc(-c3cn(-c4cc(NC(=O)c5ccc(C(C)(C)C)s5)cnc4C)nn3)c2)CC1 [I-12]
IC50: 3 nM

CCCc1cc(C(=O)Nc2cnc(C)c(-n3cc(-c4cncc(N5CCN(C6CC6)CC5)c4)nn3)c2)nn1C(C)(C)C [I-32]
IC50: 71 nM

Cc1ncc(NC(=O)c2cc(C)n(C(C)(C)C)n2)cc1-n1cc(-c2cncc(N3CCN(C(C)(C)C)CC3)c2)nn1 [I-21]
IC50: 9 nM

CCCc1cc(C(=O)Nc2cnc(C)c(-n3cc(-c4cncc(N5CCN(CCC)CC5)c4)nn3)c2)nn1C(C)(C)C [I-35]
IC50: 22 nM

CCN1CCN(c2cncc(-c3cn(-c4cc(NC(=O)c5cc(C(C)C)n(C(C)(C)C)n5)cnc4C)nn3)c2)CC1 [I-39]
IC50: 25 nM

Cc1ncc(NC(=O)c2cc(C3CC3)n(C(C)(C)C)n2)cc1-n1cc(-c2cncc(N3CCN(C)CC3)c2)nn1 [I-41]
IC50: 16 nM

Cc1ncc(NC(=O)c2cc(C(C)C)n(C(C)(C)C)n2)cc1-n1cc(-c2cncc(N3CCN(C)CC3)c2)nn1 [I-37]
IC50: 17 nM

Cc1ncc(NC(=O)c2cc(C)n(C(C)(C)C)n2)cc1-n1cc(-c2cncc(N3CCN(C(C)C)CC3)c2)nn1 [I-19]
IC50: 8 nM

CCN1CCN(c2cncc(-c3cn(-c4cc(NC(=O)c5cc(C)n(C(C)(C)C)n5)cnc4C)nn3)c2)CC1 [I-20]
IC50: 7 nM

CCCN1CCN(c2cncc(-c3cn(-c4cc(NC(=O)c5cc(C)n(C(C)C)n5)cnc4C)nn3)c2)CC1 [I-48]
IC50: 8 nM

CCN1CCN(c2cncc(-c3cn(-c4cc(NC(=O)c5cc(C6CC6)n(C(C)(C)C)n5)cnc4C)nn3)c2)CC1 [I-43]
IC50: 22 nM

Cc1ncc(NC(=O)c2cc(C)n(C(C)(C)C)n2)cc1-n1cc(-c2cncc(N3CCN(C)CC3)c2)nn1 [I-18]
IC50: 8 nM

CCCN1CCN(c2cncc(-c3cn(-c4cc(NC(=O)c5cc(CC)n(C(C)(C)C)n5)cnc4C)nn3)c2)CC1 [I-28]
IC50: 7 nM

Cc1ncc(NC(=O)c2cc(C)n(C(C)C)n2)cc1-n1cc(-c2cncc(N3CCN(C4CC4)CC3)c2)nn1 [I-49]
IC50: 22 nM

CCOCCN1CCN(c2cncc(-c3cn(-c4cc(NC(=O)c5cc(C)n(C(C)(C)C)n5)cnc4C)nn3)c2)CC1 [I-24]
IC50: 16 nM

COCCCN1CCN(c2cncc(-c3cn(-c4cc(NC(=O)c5cc(C)n(C(C)(C)C)n5)cnc4C)nn3)c2)CC1 [I-23]
IC50: 14 nM

Cc1ncc(NC(=O)c2ccc(C(C)(C)C)o2)cc1-n1cc(-c2cncc(N3CCN(CC4CC4)CC3)c2)nn1 [I-5]
IC50: 3 nM

CCCc1cc(C(=O)Nc2cnc(C)c(-n3cc(-c4cncc(N5CCN(CC)CC5)c4)nn3)c2)nn1C(C)(C)C [I-33]
IC50: 16 nM

CCc1cc(C(=O)Nc2cnc(C)c(-n3cc(-c4cncc(N5CCN(C6CC6)CC5)c4)nn3)c2)nn1C(C)(C)C [I-26]
IC50: 55 nM

Cc1ncc(NC(=O)c2ccc(C(C)(C)C)s2)cc1-n1cc(-c2cncc(N3CCN(C)CC3)c2)nn1 [I-14]
IC50: 2 nM

Cc1ncc(NC(=O)c2ccc(C(C)(C)C)o2)cc1-n1cc(-c2cncc(N3CCN(C)CC3)c2)nn1 [I-2]
IC50: 2 nM

CCCc1cc(C(=O)Nc2cnc(C)c(-n3cc(-c4cncc(N5CCN(C)CC5)c4)nn3)c2)nn1C(C)(C)C [I-36]
IC50: 18 nM

CCCN1CCN(c2cncc(-c3cn(-c4cc(NC(=O)c5cc(C(C)C)n(C(C)(C)C)n5)cnc4C)nn3)c2)CC1 [I-40]
IC50: 26 nM

Cc1ncc(NC(=O)c2cc(C(C)C)n(C(C)(C)C)n2)cc1-n1cc(-c2cncc(N3CCN(C(C)C)CC3)c2)nn1 [I-38]
IC50: 29 nM

Cc1ncc(NC(=O)c2cc(C)n(C(C)(C)C)n2)cc1-n1cc(-c2cncc(N3CCN(CC4CC4)CC3)c2)nn1 [I-22]
IC50: 11 nM

Cc1ncc(NC(=O)c2ccc(C(C)(C)C)s2)cc1-n1cc(-c2cncc(N3CCN(CC4CC4)CC3)c2)nn1 [I-10]
IC50: 6 nM

COCCCN1CCN(c2cncc(-c3cn(-c4cc(NC(=O)c5ccc(C(C)(C)C)o5)cnc4C)nn3)c2)CC1 [I-6]
IC50: 5 nM

Cc1ncc(NC(=O)c2cc(C)n(C(C)C)n2)cc1-n1cc(-c2cncc(N3CCCN(C)CC3)c2)nn1 [I-50]
IC50: 5 nM

CCc1cc(C(=O)Nc2cnc(C)c(-n3cc(-c4cncc(N5CCN(C)CC5)c4)nn3)c2)nn1C(C)(C)C [I-30]
IC50: 15 nM

Cc1ncc(NC(=O)c2cc(C)n(C(C)(C)C)n2)cc1-n1cc(-c2cncc(N3CCCN(C)CC3)c2)nn1 [I-16]
IC50: 9 nM

CCc1cc(C(=O)Nc2cnc(C)c(-n3cc(-c4cncc(N5CCN(CC)CC5)c4)nn3)c2)nn1C(C)(C)C [I-31]
IC50: 12 nM

Cc1ncc(NC(=O)c2ccc(C(C)(C)C)o2)cc1-n1cc(-c2cncc(N3CCN(C(C)C)CC3)c2)nn1 [I-1]
IC50: 4 nM

CCCN1CCN(c2cncc(-c3cn(-c4cc(NC(=O)c5cc(C6CC6)n(C(C)(C)C)n5)cnc4C)nn3)c2)CC1 [I-44]
IC50: 30 nM

CCCN1CCN(c2cncc(-c3cn(-c4cc(NC(=O)c5cc(C)n(C(C)(C)C)n5)cnc4C)nn3)c2)CC1 [I-17]
IC50: 10 nM

Cc1ncc(NC(=O)c2cc(C)n(C(C)C)n2)cc1-n1cc(-c2cncc(N3CCN(C)CC3)c2)nn1 [I-45]
IC50: 9 nM

COCCCN1CCN(c2cncc(-c3cn(-c4cc(NC(=O)c5ccc(C(C)(C)C)s5)cnc4C)nn3)c2)CC1 [I-9]
IC50: 7 nM

Cc1ncc(NC(=O)c2ccc(C(C)(C)C)s2)cc1-n1cc(-c2cncc(N3CCN(C(C)(C)C)CC3)c2)nn1 [I-11]
IC50: 6 nM

Cc1ncc(NC(=O)c2ccc(C(C)(C)C)s2)cc1-n1cc(-c2cncc(N3CCN(C(C)C)CC3)c2)nn1 [I-13]
IC50: 5 nM

CCc1cc(C(=O)Nc2cnc(C)c(-n3cc(-c4cncc(N5CCN(C(C)C)CC5)c4)nn3)c2)nn1C(C)(C)C [I-27]
IC50: 12 nM

CCOCCN1CCN(c2cncc(-c3cn(-c4cc(NC(=O)c5ccc(C(C)(C)C)s5)cnc4C)nn3)c2)CC1 [I-8]
IC50: 8 nM

Cc1ncc(NC(=O)c2cc(C)n(C(C)(C)C)n2)cc1-n1cc(-c2cncc(N3CCN(CCOC(C)C)CC3)c2)nn1 [I-25]
IC50: 16 nM

Cc1ncc(NC(=O)c2ccc(C(C)(C)C)o2)cc1-n1cc(-c2cncc(N3CCN(C(C)(C)C)CC3)c2)nn1 [I-4]
IC50: 4 nM

Cc1ncc(NC(=O)c2cc(C)n(C(C)(C)C)n2)cc1-n1cc(-c2cncc(N3CCCN(C(C)C)CC3)c2)nn1 [I-29]
IC50: 19 nM

Cc1ncc(NC(=O)c2cc(C3CC3)n(C(C)(C)C)n2)cc1-n1cc(-c2cncc(N3CCN(C(C)C)CC3)c2)nn1 [I-42]
IC50: 22 nM

CCN1CCN(c2cncc(-c3cn(-c4cc(NC(=O)c5cc(C)n(C(C)C)n5)cnc4C)nn3)c2)CC1 [I-46]
IC50: 6 nM

CCCc1cc(C(=O)Nc2cnc(C)c(-n3cc(-c4cncc(N5CCN(C(C)C)CC5)c4)nn3)c2)nn1C(C)(C)C [I-34]
IC50: 23 nM

CCOCCN1CCN(c2cncc(-c3cn(-c4cc(NC(=O)c5ccc(C(C)(C)C)o5)cnc4C)nn3)c2)CC1 [I-7]
IC50: 5 nM
